Assay results as given in ChEMBL document CHEMBL1146050, “Depeptidization efforts on P3-P2' alpha-ketoamide inhibitors of HCV NS3-4A serine protease: effect on HCV replicon activity” (Bioorg Med Chem Lett, 2006).
Numbered stars: 1 amine (or outer) side, 2 acyl side, 3 side chain; on linkers, the order of the positions; unused ones are H or OH. Square brackets hold non-standard residues; d marks the D form. Peptide text beside a SMILES is read from it. * marks the point of attachment. NMeAla(cPr) = CN[C@@H](CC1CC1)C(=O)O; Isobutyloxycarbonyl = CC(C)COC(=O)*; X1 = O=C(C(=O)[*:2])C(CC1CC1)N[*:1]; Ala(cPr) = N[C@@H](CC1CC1)C(=O)O; Chg = N[C@H](C(=O)O)C1CCCCC1; Phg = N[C@H](C(=O)O)c1ccccc1

Legend:
[1] = test system: Hepatitis C virus; test: Inhibitory activity against HCV replicon; assay type: functional, Hepacivirus hominis
[2] = target: NS3 (Hepatitis C virus, UniProt A3EZJ3); test: Inhibitory activity against HCV NS3 protease; parameters: species or system Hepacivirus hominis; conditions: read-out: Ki app
Sequence of NS3 (A3EZJ3 whole entry): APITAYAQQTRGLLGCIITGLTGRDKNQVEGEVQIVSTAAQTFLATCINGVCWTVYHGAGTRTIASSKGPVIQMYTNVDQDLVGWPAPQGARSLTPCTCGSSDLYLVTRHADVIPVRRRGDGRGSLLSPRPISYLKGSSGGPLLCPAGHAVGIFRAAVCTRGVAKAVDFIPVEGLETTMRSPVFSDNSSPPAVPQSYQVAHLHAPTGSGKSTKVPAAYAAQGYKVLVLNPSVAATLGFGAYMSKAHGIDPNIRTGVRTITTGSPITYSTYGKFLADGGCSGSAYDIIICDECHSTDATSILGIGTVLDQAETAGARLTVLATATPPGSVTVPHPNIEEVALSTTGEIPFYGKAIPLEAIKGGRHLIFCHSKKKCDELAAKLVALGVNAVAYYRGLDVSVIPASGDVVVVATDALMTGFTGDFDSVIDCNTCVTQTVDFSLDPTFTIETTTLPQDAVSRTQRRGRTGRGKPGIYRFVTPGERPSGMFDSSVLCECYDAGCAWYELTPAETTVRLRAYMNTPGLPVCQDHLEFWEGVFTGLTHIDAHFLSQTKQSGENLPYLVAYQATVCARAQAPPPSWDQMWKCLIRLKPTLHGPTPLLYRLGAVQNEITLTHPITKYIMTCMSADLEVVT

In the case of CC(C)COC(=O)N[C@@H](C1CCCCC1)[C@@H](O)CC(=O)N[C@@H](CC1CC1)C(=O)NC(CC1CC1)C(=O)C(=O)NCC(=O)N[C@H](C(=O)O)c1ccccc1 (stereo partly specified), the IC90 [1] is reported as > 5000 nM and the Ki [2] is reported as 42000 nM.
In the case of CC(C)COC(=O)N[C@@H](C1CCCCC1)[C@@H](O)CN(CC1CC1)C(=O)NC(CC1CC1)C(=O)C(=O)NCC(=O)N[C@H](C(=O)O)c1ccccc1 (stereo partly specified), the IC90 [1] is reported as > 5000 nM and the Ki [2] is reported as 10000 nM.
With CC(C)COC(=O)N[C@H](C(=O)NN(CC1CC1)C(=O)NC(CC1CC1)C(=O)C(=O)NCC(=O)N[C@H](C(=O)O)c1ccccc1)C1CCCCC1 (stereo partly specified) the IC90 [1] was > 5000 nM and the Ki [2] was 230 nM.
For CC(C)COC(=O)N[C@H](C(=O)CN(CC1CC1)C(=O)NC(CC1CC1)C(=O)C(=O)NCC(=O)N[C@H](C(=O)O)c1ccccc1)C1CCCCC1 (stereo partly specified), the IC90 [1] was > 5000 nM and the Ki [2] was 2100 nM.
CC(C)COC(=O)N[C@H](C(=O)N[C@@H](CC1CC1)C(=O)NC(CC1CC1)C(=O)C(=O)NCC(=O)N[C@H](C(=O)N(C)C)c1ccccc1)C1CCCCC1 (stereo partly specified) (Isobutyloxycarbonyl-[Chg][Ala(cPr)][X1]G[Phg]-NMe2) was tested, and the IC90 [1] was > 5000 nM and the Ki [2] was 50 nM.
For CC(C)COC(=O)N[C@H](C(=O)N[C@@H](CC1CC1)C(=O)NC(CC1CC1)C(=O)C(=O)NCC(=O)N[C@H](C(=O)O)c1ccccc1)C1CCCCC1 (stereo partly specified) (Isobutyloxycarbonyl-[Chg][Ala(cPr)][X1]G[Phg]-OH), the IC90 [1] was > 5000 nM and the Ki [2] was 15 nM.
Work on CC(C)COC(=O)N[C@H](C(=O)N(C)[C@@H](CC1CC1)C(=O)NC(CC1CC1)C(=O)C(=O)NCC(=O)N[C@H](C(=O)N(C)C)c1ccccc1)C1CCCCC1 (stereo partly specified) (Isobutyloxycarbonyl-[Chg][NMeAla(cPr)][X1]G[Phg]-NMe2) yielded an IC90 [1] of 950 nM and a Ki [2] of 60 nM.
For CC(C)COC(=O)N[C@H](C(=O)N(C)[C@@H](CC1CC1)C(=O)NC(CC1CC1)C(=O)C(=O)NCC(=O)N[C@H](C(=O)O)c1ccccc1)C1CCCCC1 (stereo partly specified) (Isobutyloxycarbonyl-[Chg][NMeAla(cPr)][X1]G[Phg]-OH), the IC90 [1] was > 5000 nM and the Ki [2] was 120 nM.
